# Test results taken from publication PMC5515969, “Effects of 31 FDA approved small-molecule kinase inhibitors on isolated rat liver mitochondria” (Archives of Toxicology, 2016).
# Read-outs that look alike come from different tables or passages of the source.
# Assays:
# [1] = tested on: isolated rat liver mitochondria; assay: Mitochondrial oxygen consumption (glutamate/malate or succinate driven, state 4 and state 3); format: biochemical; conditions: DMSO treated samples set as 1; for State 3 respiration driven by succinate at 10XCmax: key: 0 indicates that the drug had no effects (negative); for State 3 respiration driven by succinate at 1XCmax: key: 0 indicates that the drug had no effects (negative)
# How it was run: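 Oxygen uptake on glutamate/malate or on succinate defined state 4; ADP added 3 min later gave state 3. Mitochondria isolated from rat liver by differential centrifugation, adjusted to 1 mg/ml and pretreated 5 min with inhibitor (0.1% DMSO final). Values relative to DMSO control, set to 1.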
# RCC I = RCC I activity in submitochondrial particles; format: biochemical, rat; design: key to RCC I at 10XCmax / RCC I at 100XCmax / RCC I at 50XCmax / RCC I at 30XCmax / RCC I at 20XCmax: activity relative to DMSO-treated controls (control set as 1 = 100%); conditions: 10XCmax; DMSO treated samples set as 1
# How it was run: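 Kinase inhibitors were preincubated 15 min with submitochondrial particles (1 mg/ml) before complex activities were measured. RCC I was the rotenone-sensitive portion (activity without minus with rotenone). RCC I/V was read at 340 nm and RCC II at 600 nm every 1 min for 6 min. RCC III and IV were read at 550 nm every 10 s for 2 min. Activities are normalized to DMSO controls set as 1.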
# RCC II = biological target: T1, RCC II (Rattus norvegicus, UniProt P21913+Q641Z9+Q6PCT8+Q920L2); assay: RCC II activity in submitochondrial particles; format: biochemical; design: key: activity relative to DMSO-treated controls (control set as 1 = 100%); conditions: DMSO treated samples set as 1
# T1 construct: Submitochondrial particles were prepared by subjecting the intact mitochondria to three successive freeze–thaw cycles; from tissue; host or cells: rat liver mitochondria, used as submitochondrial particles
# T1 sequence (Q920L2 35-656): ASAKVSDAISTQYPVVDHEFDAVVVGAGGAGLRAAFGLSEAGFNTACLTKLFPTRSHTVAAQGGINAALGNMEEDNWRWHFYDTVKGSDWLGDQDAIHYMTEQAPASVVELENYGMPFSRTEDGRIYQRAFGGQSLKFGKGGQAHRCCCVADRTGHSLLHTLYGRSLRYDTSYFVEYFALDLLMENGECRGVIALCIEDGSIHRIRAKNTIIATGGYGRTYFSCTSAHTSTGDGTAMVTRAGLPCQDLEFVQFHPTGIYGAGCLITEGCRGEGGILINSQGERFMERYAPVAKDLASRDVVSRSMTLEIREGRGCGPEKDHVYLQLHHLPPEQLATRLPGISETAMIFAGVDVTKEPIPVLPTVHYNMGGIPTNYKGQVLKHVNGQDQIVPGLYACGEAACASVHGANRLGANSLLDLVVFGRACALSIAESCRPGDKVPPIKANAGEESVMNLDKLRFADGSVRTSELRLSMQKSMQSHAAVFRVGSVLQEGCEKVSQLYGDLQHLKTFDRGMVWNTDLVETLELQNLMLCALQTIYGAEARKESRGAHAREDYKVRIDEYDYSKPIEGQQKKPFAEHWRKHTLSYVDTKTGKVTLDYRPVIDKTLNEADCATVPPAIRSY
# T1 sequence (P21913 31-282): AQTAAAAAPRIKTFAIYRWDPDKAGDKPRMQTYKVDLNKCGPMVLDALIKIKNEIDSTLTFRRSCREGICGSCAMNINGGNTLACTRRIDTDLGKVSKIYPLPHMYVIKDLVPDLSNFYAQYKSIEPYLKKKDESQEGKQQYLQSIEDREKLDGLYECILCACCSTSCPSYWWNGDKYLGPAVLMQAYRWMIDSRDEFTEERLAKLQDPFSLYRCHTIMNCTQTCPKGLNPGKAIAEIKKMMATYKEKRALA
# T1 sequence (Q641Z9 1-169): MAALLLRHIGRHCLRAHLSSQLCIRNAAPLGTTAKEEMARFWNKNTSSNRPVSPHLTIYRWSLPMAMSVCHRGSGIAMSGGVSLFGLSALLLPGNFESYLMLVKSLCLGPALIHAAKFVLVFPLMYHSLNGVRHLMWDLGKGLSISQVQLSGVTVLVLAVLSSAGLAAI
# T1 sequence (Q6PCT8 57-159): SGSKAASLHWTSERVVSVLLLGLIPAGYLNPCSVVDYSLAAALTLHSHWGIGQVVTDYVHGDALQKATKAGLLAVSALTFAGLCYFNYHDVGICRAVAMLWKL
# How it was run: (§1)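 Absorbance kinetics: A340 (RCC I, V) and A600 (RCC II) read each minute over 6 min, A550 (RCC III, IV) every 10 s over 2 min; RCC I taken as […]. Particles (1 mg/ml) pretreated 15 min with compound; DMSO-treated activity = 1.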
# RCC III = RCC III activity in submitochondrial particles; format: biochemical, rat; design: key to RCC III at 100XCmax: activity relative to DMSO-treated controls (control set as 1 = 100%); conditions: 100XCmax
# How it was run: as §1
# RCC IV = RCC IV activity in submitochondrial particles; format: biochemical, rat; design: key to RCC IV at 50XCmax / RCC IV at 100XCmax: activity relative to DMSO-treated controls (control set as 1 = 100%); conditions: 50XCmax; DMSO treated samples set as 1; in %
# How it was run: as §1
# RCC V = RCC V activity in submitochondrial particles; format: biochemical, rat; conditions: DMSO treated samples set as 1; for RCC V at 5XCmax: key: 0 indicates that the drug had no effects (negative)
# How it was run: as §1
# [2] = tested on: isolated rat liver mitochondria; assay: Mitochondrial inner membrane potential (MMP), Rhodamine 123; format: biochemical; conditions: difference in signal between KI and DMSO treated samples at the end of experiments
# From the text: Fig. 3 KI effects on mitochondrial inner membrane potential (MMP). […] In a, c, data are means and standard derivations from three separate experiments. *p < 0.05 as compared to DMSO-treated samples at the end of experiments. In b, data are means of two independent experiments
# [3] = tested on: isolated rat liver mitochondria; assay: Mitochondrial swelling (absorbance at 535 nm); format: biochemical; conditions: difference in signal between KI and DMSO treated samples at the end of experiments; for Swelling 5XCmax: key: 0 indicates that the drug had no effects (negative)
# [4] = cited from earlier work
# [5] = tested on: isolated rat liver mitochondria; assay: Mitochondrial ROS production (CM-H2DCFDA); conditions: DMSO treated samples set as 1
smiles,measurement,setting,value
O=C(c1ccc(F)c(F)c1Nc1ccc(I)cc1F)N1CC(O)([C@@H]2CCCCN2)C1 [Cobimetinib],State 3 respiration driven by glutamate/malate at 1XCmax,[1]; 1XCmax,0
same,State 3 respiration driven by succinate at 1XCmax,[1]; 1XCmax,0
same,State 4 respiration driven by glutamate/malate at 1XCmax,[1]; 1XCmax,0
same,State 4 respiration driven by succinate at 1XCmax,[1]; 1XCmax,0
same,State 3 respiration driven by glutamate/malate at 2.5XCmax,[1]; 2.5XCmax,0
same,State 3 respiration driven by succinate at 2.5XCmax,[1]; 2.5XCmax,0
same,State 4 respiration driven by glutamate/malate at 2.5XCmax,[1]; 2.5XCmax,0
same,State 4 respiration driven by succinate at 2.5XCmax,[1]; 2.5XCmax,0
same,State 3 respiration driven by glutamate/malate at 5XCmax,[1]; 5XCmax,0
same,State 3 respiration driven by succinate at 5XCmax,[1]; 5XCmax,0
same,State 4 respiration driven by glutamate/malate at 5XCmax,[1]; 5XCmax,0
same,State 4 respiration driven by succinate at 5XCmax,[1]; 5XCmax,0
same,State 3 respiration driven by glutamate/malate at 10XCmax,[1]; 10XCmax,0
same,State 3 respiration driven by succinate at 10XCmax,[1]; 10XCmax,0
same,State 4 respiration driven by glutamate/malate at 10XCmax,[1]; 10XCmax,0
same,State 4 respiration driven by succinate at 10XCmax,[1]; 10XCmax,0
same,State 3 respiration driven by glutamate/malate at 20XCmax,[1]; 20XCmax,0
same,State 3 respiration driven by succinate at 20XCmax,[1]; 20XCmax,0
same,State 4 respiration driven by glutamate/malate at 20XCmax,[1]; 20XCmax,0
same,State 4 respiration driven by succinate at 20XCmax,[1]; 20XCmax,0
same,State 3 respiration driven by glutamate/malate at 30XCmax,[1]; 30XCmax,0
same,State 3 respiration driven by succinate at 30XCmax,[1]; 30XCmax,0
same,State 4 respiration driven by glutamate/malate at 30XCmax,[1]; 30XCmax,0
same,State 4 respiration driven by succinate at 30XCmax,[1]; 30XCmax,0
same,State 3 respiration driven by glutamate/malate at 50XCmax,[1]; 50XCmax,0
same,State 3 respiration driven by succinate at 50XCmax,[1]; 50XCmax,0
same,State 4 respiration driven by glutamate/malate at 50XCmax,[1]; 50XCmax,0
same,State 4 respiration driven by succinate at 50XCmax,[1]; 50XCmax,0
same,State 3 respiration driven by glutamate/malate at 100XCmax,[1]; 100XCmax,0
same,State 3 respiration driven by succinate at 100XCmax,[1]; 100XCmax,0
same,State 4 respiration driven by glutamate/malate at 100XCmax,[1]; 100XCmax,0
same,State 4 respiration driven by succinate at 100XCmax,[1]; 100XCmax,0
same,RCC I at 10XCmax,RCC I,0
same,RCC II at 1.0XCmax,RCC II; 1.0XCmax,0
same,RCC II at 2.5XCmax,RCC II; 2.5XCmax,0
same,RCC II at 5XCmax,RCC II; 5XCmax,0
same,RCC II at 10XCmax,RCC II; 10XCmax,0
same,RCC II at 20XCmax,RCC II; 20XCmax,0
same,RCC II at 30XCmax,RCC II; 30XCmax,0
same,RCC II at 50XCmax,RCC II; 50XCmax,0
same,RCC II at 100XCmax,RCC II; 100XCmax,0
same,RCC III at 100XCmax,RCC III,0
same,RCC IV at 50XCmax,RCC IV,0
same,RCC V at 5XCmax,RCC V; 5XCmax,0
same,RCC V at 50XCmax,RCC V; 50XCmax,0
same,MMP measured by Rhodamine 123 at 1XCmax,[2]; 1XCmax,0
same,MMP measured by Rhodamine 123 at 2.5XCmax,[2]; 2.5XCmax,0
same,MMP measured by Rhodamine 123 at 5XCmax,[2]; 5XCmax,0
same,MMP measured by Rhodamine 123 at 10XCmax,[2]; 10XCmax,0
same,MMP measured by Rhodamine 123 at 20XCmax,[2]; 20XCmax,0
same,MMP measured by Rhodamine 123 at 30XCmax,[2]; 30XCmax,0
same,MMP measured by Rhodamine 123 at 50XCmax,[2]; 50XCmax,0
same,MMP measured by Rhodamine 123 at 100XCmax,[2]; 100XCmax,0
same,Swelling 1XCmax,[3]; 1XCmax,0
same,Swelling 2.5XCmax,[3]; 2.5XCmax,0
same,Swelling 5XCmax,[3]; 5XCmax,0
same,Swelling 10XCmax,[3]; 10XCmax,0
same,Swelling 20XCmax,[3]; 20XCmax,0
same,Swelling 30XCmax,[3]; 30XCmax,0
same,Swelling 50XCmax,[3]; 50XCmax,0
same,Swelling 100XCmax,[3]; 100XCmax,0
same,DILI potential (based on labeling),"[4]; 1 DILI positive, 0 negative according to labeling, ref product labeling",1
same,Labeling for DILI,"[4]; BBW: black box warning, W&P: Warnings and Precautions, ref product labeling",W&P: ALT↑
same,labeling for DILI,"[4]; W&P warnings and precautions, BBW black box warnings, ref FDA product labeling",W&P: ALT↑/monitoring
same,DILI potential (based on labeling),[4]; ref FDA product labeling,1
same,ROS measured by CM-H2DCFDA at 1XCmax,[5]; 1XCmax,0
same,ROS measured by CM-H2DCFDA at 2.5XCmax,[5]; 2.5XCmax,0
same,ROS measured by CM-H2DCFDA at 5XCmax,[5]; 5XCmax,0
same,ROS measured by CM-H2DCFDA at 10XCmax,[5]; 10XCmax,0
same,ROS measured by CM-H2DCFDA at 20XCmax,[5]; 20XCmax,0
same,ROS measured by CM-H2DCFDA at 30XCmax,[5]; 30XCmax,0
same,ROS measured by CM-H2DCFDA at 50XCmax,[5]; 50XCmax,0
same,ROS measured by CM-H2DCFDA at 100XCmax,[5]; 100XCmax,0
